Data set [1] has as its system Sprague Dawley (SD) rats with vitamin D3-induced limb ischemia. In words: Walking ability (MWD, MWT) by treadmill running test, prevention of vitamin D3-induced limb ischemia. The data set is classed as in vivo, rat. The protocol: (§1) Quantification of walking ability (maximal waling time (MWT) and maximal walking distance (MWD)) are measured by a forced incremental treadmill running test. A two-lane rodent treadmill (LE8709TS; PanLab/Harvard Apparatus, Holliston, MA, US) is employed. The treadmill is maintained at a 15% inclination running at a speed of 15 m/min (25 cm/sec) during the first 5 min, then at 33 cm/see during the following 5 min, and finally, at a speed of 40 cm/see for a maximum of 30 additional minutes.
Subjects are exercised in the treadmill for acclimatization according to a set protocol prior to testing.
Subjects are kept running for up to 40 min or until exhausted (i.e., they remain on the shock grid for five continuous seconds) during the test. MWD and MWT are then calculated for each animal.
Maximal waling time (MWT) and maximal walking distance (MWD) were assessed in groups 1~4 by the treadmill running test (8 to10 animals per group and time point) in DO, D5, D10, and D17.
Subjects were acclimatized to the treadmill for two days before conducting the test. On the first day, subjects were exercised for 5 to 10 minutes with the treadmill speed ranging progressively from 15 m/min to 24 m/min. On the second day, the subjects were exercised initially at a speed of 15 m/min for the 5 minutes. Then, they were exercised at 19.8 m/min (33 cm/sec) for 5 additional minutes. Finally, the subjects were exercised at 24 m/min (40 cm/sec) for a maximum 30 additional minutes. Preoperative walking time and distance recordings were obtained.
Limb function (MWT and MWD) was assessed in groups 1, 2, and 3 using the treadmill running test 15 min after the corresponding daily administration. Limb function in groups 4 was assessed from 3 to 4 hours after treatment.
(§2) The subjects were kept running for 40 minutes or until exhausted (i.e., they remain on the shock grid for five continuous seconds). MWD and MWT was then calculated for each animal.
Maximal walking time (MWT) and maximal walking distance (MWD) were assessed in groups 1-8 by the treadmill running test (8 to12 animals per group and time point) in DO, D5 and D10.
Limb function (MWT and MWD) was assessed in groups 1, 2, 3, 4, 5, 6 and 7 using the treadmill running test 15 min after the corresponding daily administration. Limb function in group 8 was assessed from 3 to 4 hours after treatment.

For data set [2] the test system is unchanged. In words: Limb blood perfusion by laser doppler perfusion imaging, prevention of vitamin D3-induced limb ischemia. The data set is classed as in vivo, rat. The protocol: Position limb blood perfusion and ischemia status (i.e., blood perfusion including, perfusion unit, perfusion difference and perfusion ratio) is evaluated by laser doppler perfusion imaging using a PeriCam PSI NR imager (Perimed AB, Järfä11a, SE). Subjects are anesthetized using 3% isoflurane delivered in 100% oxygen at a flow rate at 1 L/min before measuring. The perfusion difference and perfusion ratio are calculated by comparing the baseline and any indicated interim or final readings for each group. […]
Limb ischemia status was evaluated at days DO (baseline), D6 and D12 in all rats by laser doppler perfusion imaging. The perfusion difference and perfusion ratio were calculated by comparing the DO baseline and either the D6 and D12 readings for each group. […]
Limb ischemia status was evaluated during treatment and after treatment was interrupted (i.e., DO, D6, D12, D18) in all rats by laser doppler perfusion imaging. The perfusion difference and perfusion ratio were calculated by comparing the baseline and either of the D6, D12, and D18 readings for each group. […]
Limb ischemia status was evaluated during the treatment period (i.e., DO, D6 and D12) by laser doppler perfusion imaging in all rats. The perfusion difference and perfusion ratio were calculated by comparing the baseline and either of the D6 and D12 readings for each group.

Data set [3] shares this test system. Nature of the data set: Walking ability by treadmill running test, treatment after inception of limb ischemia. The data set is classed as in vivo, rat. The following applies: Example 3; 40 mg/kg/day, treatment started 5 days after ischemia induction, D11. As for the experimental part: as §1
Maximal walking time (MWT) and maximal walking distance (MWD) were assessed in all groups at DO and in groups 1, 3a, 3b, 4, and 5 at D6 and D11 by the treadmill running test (8 to 12 animals per group and time point). Subjects were acclimatized to the treadmill for two days before conducting the test. On the first day, subjects were exercised for 5 to 10 minutes with the treadmill speed ranging progressively from 15 m/min to 24 m/min. […]
Limb function (MWT and MWD) was assessed in groups 1, 3a, 3b, and 4 using the treadmill running test 15 min after the corresponding daily administration. Limb function in groups 5 was assessed from 3 to 4 hours after treatment.
as §2

Data set [4] deals with adenine-induced uremic Sprague Dawley (SD) rats. In words: Heart and aorta calcification (calcium content by ICP-OES), adenine-induced uremic rat model. The following applies: Example 6; SNF472 s.c. dosing or Alzet pump; cilostazol 45 mg/kg oral; D21. It is filed as in vivo. The protocol: Uremia and limb ischemia were induced in groups 2-6 by a daily dose of adenine (500 mg/kg, suspended in 1% carboxymethyl cellulose, administered orally) for the first 10 days, and then with a dose of α-calcidol (100 ng/kg in olive oil, administered orally) three times per week from D11 to D19, to accelerate and homogenize the development of cardiovascular calcification and ischemia. Subjects were anesthetized and their blood was obtained in D21. The subjects were sacrificed after exsanguination. Then, their necropsies were performed, and their heart and aorta arteries were collected. The tissues were lyophilized for 24 h and weighed. The lyophilized tissues were then digested using a 1:1 HNO3: HClO4 mixture in a dry bath incubator for 2-4 h at 180° C. The digested tissues were subsequently diluted using ultra-pure Milli-Q water (MilliporeSigma (Merck KGaA), Burlington, MA, US) to a final volume of 10 mL. The calcium content in the tissue samples was quantified via ICP-OES.

The test system is the same in data set [5]. In words: Limb blood perfusion by laser doppler perfusion imaging, adenine-induced uremic rat model. The data set is classed as in vivo. The settings on record: Example 6; SNF472 30, 45 mg/kg s.c. or 400 mg/4 weeks Alzet pump; cilostazol 45 mg/kg oral; D1 to D21. The protocol:
Position limb blood perfusion and ischemia status (i.e., blood perfusion including, perfusion unit, perfusion difference and perfusion ratio) is evaluated by laser doppler perfusion imaging using a PeriCam PSI NR imager (Perimed AB, Järfä11a, SE). Subjects are anesthetized using 3% isoflurane delivered in 100% oxygen at a flow rate at 1 L/min before measuring. The perfusion difference and perfusion ratio are calculated by comparing the baseline and any indicated interim or final readings for each group.
Uremia and limb ischemia were induced in groups 2-6 by a daily dose of adenine (500 mg/kg, suspended in 1% carboxymethyl cellulose, administered orally) for the first 10 days, and then with a dose of α-calcidol (100 ng/kg in olive oil, administered orally) three times per week from D11 to D19, to accelerate and homogenize the development of cardiovascular calcification and ischemia.
Animals in group 6 were administered orally 45 mg/kg cilostazol (C20H27N5O2, free base 369.46 g/mol; lot no. LRAB9590, Sigma-Aldrich Corp., St. Louis, MO, US) in a 5% CMC sodium salt in water solution (5 mL/kg) daily from D1 to D21.
Limb ischemia status was evaluated during treatment (i.e., DO, D10 and D17 and D21) in all rats by laser doppler perfusion imaging. The perfusion difference and perfusion ratio were calculated by comparing the baseline and of the D10, D17 and D21 readings for each group.

The conditions of data set [6]: in vivo; cited from earlier work.
The subject of data set [7] is Sprague Dawley (SD) rats with vitamin D3-induced limb ischemia. In words: Limb blood perfusion by laser doppler perfusion imaging, treatment after inception of limb ischemia. It is filed as in vivo, rat. The following applies: Example 3; 40 mg/kg daily D5 to D13.
Protocol: Position limb blood perfusion and ischemia status (i.e., blood perfusion including, perfusion unit, perfusion difference and perfusion ratio) is evaluated by laser doppler perfusion imaging using a PeriCam PSI NR imager (Perimed AB, Järfä11a, SE). Subjects are anesthetized using 3% isoflurane delivered in 100% oxygen at a flow rate at 1 L/min before measuring. The perfusion difference and perfusion ratio are calculated by comparing the baseline and any indicated interim or final readings for each group. […] Limb ischemia was induced in the subjects of groups 2-5 by subcutaneous administration of 120,000 IU/kg vitamin D3 (cholecalciferol, Duphafral D3 1000; Zoetis Inc., Parsippany, NJ, US) in physiological saline solution (2 mL/kg) every day during D1 to D3. The group 1 subjects were administered physiological saline solution (2 mL/kg) subcutaneously every day from D1 to D3 with no vitamin D3. Subjects in groups 3a placebo were administered 2 mL/kg of physiological saline solution daily from D5 to D13 via subcutaneous route. Subjects in group 3b placebo were administered orally 5 mL/kg of a 5% CMC sodium salt in water solution daily from D5 to D13. […] The perfusion difference and perfusion ratio were calculated by comparing the baseline and either D5 and D13 readings for each group.
Data set [8] has as its system Sprague Dawley (SD) rats treated with vitamin D3. Nature of the data set: Tissue calcification (calcium content by ICP-OES), VitD rat model, prevention. The data set is classed as in vivo.
Description: Subjects are anesthetized by isoflurane inhalation. Blood is obtained by exsanguination through cardiac puncture. The subjects are then sacrificed and their tissues (e.g., right and left femoral arteries, aorta) are collected. The blood and tissues are processed and analyzed for determining their calcium contents. Calcium content in tissue sample is quantified via inductively coupled plasma optical emission spectrometry (ICP-OES) using an Optima 7300 DV ICP-OES System spectrometer (PerkinElmer, Inc., Waltham, MA, US) according to the manufacturer's instructions. […] The subjects from groups 1, 2, 3 and 5 were sacrificed after exsanguination. Then, their necropsies were performed, and their aortas were collected. The tissues were lyophilized for 24 h and weighed. The lyophilized tissues were then digested using a 1:1 HNO3: HClO4 mixture in a dry bath incubator for 2-4 h at 180° C. The digested tissues were subsequently diluted using ultra-pure Milli-Q water (MilliporeSigma (Merck KGaA), Burlington, MA, US) to a final volume of 10 mL. The calcium content in the aorta sample was quantified via ICP-OES. Subjects were anesthetized and their blood was obtained in D24. The subjects were sacrificed after exsanguination. Then, their necropsies were performed, and their aortas were collected. The tissues were lyophilized for 24 h and weighed. The lyophilized tissues were then digested using a 1:1 HNO3: HClO4 mixture in a dry bath incubator for 2-4 h at 180° C. The digested tissues were subsequently diluted using ultra-pure Milli-Q water (MilliporeSigma (Merck KGaA), Burlington, MA, US) to a final volume of 10 mL. The calcium content in the tissue samples was quantified via ICP-OES. Subjects were anesthetized and their blood was obtained in D12. The subjects were sacrificed after exsanguination. Then, their necropsies were performed, and their heart and aorta arteries were collected. The tissues were lyophilized for 24 h and weighed. […] The calcium content in the tissue samples was quantified via ICP-OES.
The test system of data set [9] is people with symptomatic PAD. The following applies: recent studies in PAD patients; cited from earlier work.

For `O=C1CCc2cc(OCCCCc3nnnn3C3CCCCC3)ccc2N1` [Cilostazol, 6-[4-(1-cyclohexyl-1H-tetrazol-5yl)butoxy]-3,4-dihydro-2 (1H)-quinolinone], the “improvement of Maximal Walking Distance (MWD) compared to vehicle” value in [1] (Example 2, 20 mg/kg daily, D10) is recorded as “+54%”. Moreover, the “improvement of Maximal Walking Time (MWT) compared to vehicle” value in [1] (Example 2, 20 mg/kg daily, D10) is given as “+46%”. In data set [1] (Example 2, D17, 5 days after interrupting treatment), the “effect on walking ability after interrupting treatment” value is given as “lost its beneficial effects”. Further, the “walking ability compared to vehicle” value in data set [1] (Example 5, SNF472 1-45 mg/kg s.c., cilostazol 45 mg/kg oral, daily D1 to D12) is recorded as “improved walking ability”. The “rat limb ischemia (blood perfusion)” value is on record as “not effective” in data set [2] (Example 2, 20 mg/kg daily D1 to D12 (SNF472 s.c., cilostazol oral)) and “not effective” in [2] (Example 5, SNF472 1, 7.5, 15, 30, 45 mg/kg s.c., cilostazol 45 mg/kg oral, daily D1 to D12). In [3], the “improvement of walking ability (MWD) compared to vehicle” value is reported as “not effective”. In addition, the “heart and aorta arteries calcification in uremic rats” value in [4] was “not active against calcification”. Further, the “rat limb ischemia in uremic rats (blood perfusion)” value in [5] is given as “not effective”. Besides, the side effects entry in data set [6] was “headache, diarrhea, palpitations, and lightheadedness”. Also, the “limbs blood perfusion in D13 compared to D5 before treatment” value in data set [7] is given as “No improvement or ischemia rescue”. Besides, the “inhibition of aorta calcification compared to placebo” value is listed as “not active against calcification” in [8] (Example 1, 20 mg/kg daily, D12) and “not active against calcification” in [8] (Example 2, 20 mg/kg daily D1 to D12, D24 (12 days after interruption of treatment)). The “heart and aorta arteries calcification” value in data set [8] (Example 5, SNF472 1-45 mg/kg s.c., cilostazol 45 mg/kg oral, D12) is “not active against calcification”.

With `CC(=O)CCCCn1c(=O)c2c(ncn2C)n(C)c1=O` [pentoxifylline], the “intermittent claudication symptoms or maximal walking distance versus placebo” value in [9] is listed as “not significantly improved”.
